Measured values: patent US20240166765A1, “INFLAMMATORY DISEASE TREATMENT USING ANTI-TISSUE FACTOR ANTIBODIES” (Iconic Therapeutics LLC, priority 2020, published 2024)
Square brackets hold non-standard residues; d marks the D form. Peptide text beside a SMILES is read from it. * marks the point of attachment. Dolaproine = CO[C@@H]([C@@H]1CCCN1)[C@@H](C)C(=O)O; Dil = CC[C@H](C)[C@H](NC)[C@@H](CC(=O)O)OC; X1 = C[C@@H](N*)[C@@H](O)c1ccccc1; NMeV = CN[C@H](C(=O)O)C(C)C

Legend:
[1] = tested on: DSS-colitis model, C57BL/6 mice; experiment: DSS-colitis model (2.5% DSS); type: in vivo, mouse
Source text: In a colitis model, the administration of dextran sulfate sodium (DSS) causes colitis-like pathologies due to toxicity to colonic epithelial cells, which leads to a compromised mucosal function and infiltration of neutrophils, macrophages and lymphocytes. It results in loss of epithelial barrier function, secretion of proinflammatory cytokines and chemokines, and the influx of cells with cytotoxic potential, such as neutrophils and inflammatory macrophages. It is not considered a T-cell-mediated process in the art.
On Day 0 of the study, 8-12 week old male C57BL/6 mice received either sterile water ad libitum (Group 1, n=5) or 2.5% (w/v) DSS dissolved into sterile water ad libitum (Groups 2-5, n=10 mice per group).
On Day 8, all animals received sterile water for the remainder of the experiment and were euthanized on day 10.
Throughout the study clinical observations were made daily. Body weight was measured and recorded daily (from Day 0 to Day 10). Body condition was also evaluated visually daily using the scoring system illustrated in FIG. 2. The stool consistency was determined qualitatively and blood in stool was measured daily using a hemoccult stool bleeding test. […]
Following euthanasia, the animal was measured (length determined) and weighed. Weight/length ratio was calculated for each animal. The animals were dissected and the weight of their spleens was determined. […]

HUVECs = experiment: G2/M arrest (phospho-Histone H3) in HUVECs; type: cell-based, human; details: HCT-116 cells and HUVECs
Method: To further understand the resistance of endothelial cells to anti-TF ADCs, cell cycle progression was evaluated 24 h after addition of the cytokines and TF-specific ADCs. Arrest at the G2/M phase of the cell cycle was analyzed as previously described in Theunissen et al, Methods Enzymol, 2006, 409:251-284. Briefly, low-passage HUVECs (Lifeline Cell Technologies, Frederick, MD, USA), propagated in VascuLife VEGF-Mv Endothelial media (Lifeline Cell Technologies), and HCT-116 cells were seeded on 12-well plates. The next day, media was removed and replaced with fresh media (no cytokines) or media containing 5 […] IL1-beta, 25 ng/mL TNF-alpha and 50 ng/mL VEGF (with cytokines). A titration of MMAE-linked ADCs or free MMAE was added to the cells. After 24 h of treatment, cells were fixed in ice-cold 70% ethanol. Subsequently, the cells were washed with flow cytometry buffer (PBS, 1% FBS, 0.1% Triton) and stained for 1 h with a 1:100 dilution of phospho-Histone H3 (Ser10) (D2C8 PE Conjugate, Cell Signaling Technology). After 2 washes, the cells were treated for 20 min with 100 μg/mL PureLink RNAse A (ThermoFisher Scientific), followed by the addition of the viability dye TO-PRO-3 Iodide (ThermoFisher Scientific). 40,000 events were collected on a Novocyte flow cytometer. In the Flowjo data analysis software cell doublets and aneuploid cells were excluded. […]

[2] = tested on: chimeric human-rat TF constructs expressed on HEK293 cells; experiment: Epitope binning, chimeric TF construct mapping (live cell staining assay); type: binding
Method: To establish binding of the anti-human TF antibodies to the various TF constructs, HEK293 cells were transfected with a DNA plasmid that co-expresses the TF construct and a green fluorescent protein marker. For a subset of the antibodies, an antibody titration (a 12-point 1:3 dilution series starting at 250 nM) was evaluated on select TF constructs (See international PCT application PCT/US2019/012427 and U.S. utility application Ser. No. 16/959,652, incorporated herein by reference in their entirety). […] Two days after transfection, cells were collected from the tissue culture plate, stained with 15 μg/ml of the indicated anti-TF antibody, washed, stained with anti-human IgG-Fc Alexa Fluor 647 polyclonal antibody, washed, and stained with the viability dye 4′,6-Diamidino-2-Phenylindole, Dihydrochloride. Upon acquisition of 80,000 live events on a flow cytometer, live cells marked with the fluorescent marker were analyzed for the degree of staining by the anti-TF antibody. […] As used herein, the term “live cell staining assay” refers to the antibody binding assay used in this example.
When “Percentage antibody binding to TF construct relative to hTF” in Tables 51 and 52 was less than 50%, the antibody was considered a non-binder (0) in Tables 53 and 54.

[3] = tested on: thrombin generation (relipidated TF in normal pooled plasma); experiment: Thrombin generation assay (TGA) without antibody pre-incubation; type: biochemical, human; details: Table 44
Method: (§1) The TGA assay was performed using the calibrated-automated-thrombogram (CAT) instrument manufactured and distributed by STAGO. The test method design was equivalent to a standard CAT assay measurement, except that the plasma source was NPP in citrate/CTI. […] Relipidated TF was added to a 96-well assay plate, followed by addition of the antibody/NPP mixture. After a 10-min incubation or directly after combining the relipidated TF with antibody/NPP, thrombin generation was initiated by the addition of calcium and the thrombin substrate. The STAGO software was used to report the following parameters: Peak IIa (highest thrombin concentration generated [nM]); Lag Time (time to IIa generation [min]); ETP (endogenous thrombin potential, area under the curve [nM×min]); and ttPeak (time to Peak IIa [min]).
as §1, with “was normal pooled plasma (NPP)” for “was NPP”, “in citrate supplemented with corn trypsin inhibitor (citrate/CTI).” for “in citrate/CTI.”
(§2) TGA assay was performed using the calibrated-automated-thrombogram (CAT) instrument manufactured and distributed by STAGO (Diagnostica Stago SAS, Asnieres sur Seine, France). […] The anti-TF antibodies were titrated at 0, 10, 50 and 100 nM and mixed with NPP in citrate/CTI. Relipidated TF was added to a 96-well assay plate, followed by addition of the antibody/NPP mixture. After a 10-min incubation or directly after combining the relipidated TF with antibody/NPP, thrombin generation was initiated by the addition of calcium and the thrombin substrate. The STAGO software was used to report the following parameters: Peak IIa (highest thrombin concentration generated on the thrombin generation curve [nM]); Lag Time (time from assay start to the moment 10 nM of thrombin is formed [min]); ETP (endogenous thrombin potential, area under the curve [nM×min]); and ttPeak (time from assay start to Peak IIa [min]). […] As used herein, the term “thrombin generation assay” (TGA) refers to the TGA used in this example.

[4] = tested on: thrombin generation (relipidated TF in normal pooled plasma); experiment: Thrombin generation assay (TGA) with 10 min antibody pre-incubation; type: biochemical, human
Method: as §1
as §1, with “was normal pooled plasma (NPP)” for “was NPP”, “in citrate supplemented with corn trypsin inhibitor (citrate/CTI).” for “in citrate/CTI.”
as §2

[5] = tested on: LPS-induced acute lung injury model, BALB/c mice; experiment: LPS-induced acute lung injury model; type: in vivo, mouse; details: end of the study; 431D8 1 mg/kg IP; dexamethasone 3 mg/kg IP
Method: For this study, 48 male BALB/c mice were randomly and prospectively assigned to five groups: a group of six (n=6), a group of twelve (n=12), and three groups of ten (n=10 per group) animals each. On Day 0, animals in Groups 2-5 were dosed according to Table 63, 60 minutes prior to LPS administration. […] Animals were then released into a recovery cage until they woke up.
All animals were weighed and evaluated for respiratory distress daily (defined as an increase in respiratory rate and/or obvious respiratory effort). Animals with severe respiratory distress, or animals that lost greater than 20% of their total starting body weight, were euthanized within 2 hours of observation.
At 48 hours post-LPS challenge all animals were sacrificed with an overdose of xylazine and bronco-alveolar lavage (BAL) of the right lung only was performed (by tying off the left lung) for total and differential cell counts as well as total protein quantification and cytokine quantitation by Luminex. Lungs were then weighed (total lung weight and right lung weight). The right lung was frozen in liquid nitrogen and stored at −80° C. […] All slides were evaluated by a board-certified veterinary pathologist who used a scoring system to evaluate extent of lung injury and inflammation.

**Q.** For Cyclosporine [CsA, reference compound], which body condition score ([1]; after Day 7) is on record?
**A.** most significant deterioration in body condition

**Q.** What about the “weight loss relative to baseline” value ([1]; by Day 4, CsA 80 mg/kg once daily oral gavage) of the same compound?
**A.** ~20%

**Q.** With `CC[C@H](C)[C@@H]([C@@H](CC(=O)N1CCC[C@H]1[C@H](OC)[C@@H](C)C(=O)N[C@H](C)[C@@H](O)c1ccccc1)OC)N(C)C(=O)[C@@H](NC(=O)[C@@H](NC)C(C)C)C(C)C` [MMAE, monomethyl auristatin E] (H-[NMeV]V[Dil][Dolaproine]-X1) as the compound, how does the “phosphorylation of histone H3” value (HUVECs) read?
**A.** increase the phosphorylation of histone H3 to a similar extent in both HCT-116 cells and HUVECs

**Q.** Which “Antibody binding to TF construct” value ([2]; Table 53, construct rTF) does the source give for “5G9: previously described TF-specific antibody” here?
**A.** 0 (less than 50%, the antibody was considered a non-binder (0))

**Q.** What about the “Antibody binding to TF construct” value ([2]; Table 54, construct rTF) of the same compound?
**A.** 0 (less than 50%, the antibody was considered a non-binder (0))

**Q.** What about the “Constructs not bound by antibody” value ([2]; chimeric human-rat TF constructs) of the same compound?
**A.** rTF, h1-107_r, h108-219_r, h159-219_r, h159-189_r, h159-174_r, h167-174_r, h190-219_r

**Q.** And the “Antibody binding to TF construct” value ([2]; construct h78-107_r (21), human segment replaced by rat segment)?
**A.** 1 (between 50% and 150%, the antibody was considered a binder (1))

**Q.** What about the “Antibody binding to TF construct” value ([2]; construct h108-219_r (46), human segment replaced by rat segment) of the same compound?
**A.** 0 (less than 50%, the antibody was considered a non-binder (0))

**Q.** What about the “Antibody binding to TF construct” value ([2]; construct h159-219_r (27), human segment replaced by rat segment) of the same compound?
**A.** 0 (less than 50%, the antibody was considered a non-binder (0))

**Q.** And the “Antibody binding to TF construct” value ([2]; construct r141-194_h (rat amino acid segment replaced by human segment, 20 amino acid changes))?
**A.** 0 (less than 50%, the antibody was considered a non-binder (0))

**Q.** What about the “Percent antibody binding to TF construct relative to hTF” value ([2]; construct r141-194_h (rat amino acid segment replaced by human segment, 20 amino acid changes), 15 μg/ml antibody) of the same compound?
**A.** 32%

**Q.** What about the ETP ([3]; Ab conc. 10 nM) of the same compound?
**A.** 1176 nM·min

**Q.** “10H10: previously described TF-specific antibody [reference compound]” was tested. Which ETP ([4]; Ab conc. 10 nM) did it give?
**A.** 1807 nM·min

**Q.** What about the ETP ([4]; Ab conc. 50 nM) of the same compound?
**A.** 1754 nM·min

**Q.** What about the ETP ([4]; Ab conc. 100 nM) of the same compound?
**A.** 1795 nM·min

**Q.** What about the ETP ([3]; Ab conc. 10 nM) of the same compound?
**A.** 2036 nM·min

**Q.** And the ETP ([3]; Ab conc. 50 nM)?
**A.** 1978 nM·min

**Q.** And the ETP ([3]; Ab conc. 100 nM)?
**A.** 1945 nM·min

**Q.** For Dexamethasone [reference compound], which “weight loss relative to baseline” value [5] is on record?
**A.** about 2%
